Results on one substance are retold here after patent US7183095B2, “Cell culture system for synthesis of infectious hepatitis C virus” (priority 2001, dated 2007).

The test deals with HCV type 1a (pCV-H77C) in Huh-7 cells. Description: Cell surface expression of HCV envelope proteins E1 and E2 by flow cytometry (FACS) in transfected Huh-7 cells. The format is cell-based, hepatitis C virus. The note with it: Huh-7 cells transfected with type 1a pCVH77C and AR3126, interferon treatment. As for the experimental part:
Transfected or supernatant treated Huh-7 cells were stained with anti-E1 or anti-E2 antibodies using procedures similar to those described previously by Koka et al. A goat anti-mouse IgG1 antibody conjugated to PE was used for labeling of the primary antibody. Flow cytometric analyses were performed on a Becton-Dickinson FACSCAN.
Huh-7 cells (1×10^7) were transfected/co-transfected with plasmid DNA at 60–70% confluency in T-75 tissue culture flasks. In some experiments transfection was carried out in 6-well plates (3×10^6 cells per well and 2 μg of each plasmid). Ten μgs of each plasmid was added to 0.45 ml of serum-free RPMI and mixed with 180 μl of superfect transfection reagent from Quiagen. The mixture was incubated at room temperature for 10 min after which 3 ml of RPMI containing 10% fetal bovine serum was then added. The mixture was then layered on Huh-7 cells and incubated at 37° C. for 6 h. The cell culture medium was changed regularly until the cells were harvested for labeling with appropriate antibodies or RNA isolation.
Viral protein synthesis was monitored by assaying cell surface expression of viral envelope proteins E1 and E2 by fluorescent activated cell sorting (FACS). Cell surface expression of HCV E1 and E2 was determined by flow cytometry following a procedure as previously described. […]

Turning to gamma: interferon gamma, the E1/E2 expression result is given as “inhibited E1/E2 expression only marginally”.
